Among the data in PMC2195891 (2006) are KD values, retold here.

The subject of this experiment is human telomeric quadruplex (Htelo), 5'-biotin SPR strand (DNA, G4) GTTAGGGTTAGGGTTAGGGTTAGGGTTAGG
Put plainly: SPR, equilibrium response. Conditions: K+ 100 mM (KCl), 50 mM Tris-HCl pH 7.4. On the technique in general: In SPR one partner is held on a chip, and binding of the other changes the refractive index at the surface.

As usually defined, the KD is the free concentration of one partner at which half of the binding sites on the other are occupied at equilibrium, for simple one-to-one binding. A high value points to lower affinity. Take `C[n+]1ccc(-c2c3nc(c(-c4cc[n+](C)cc4)c4ccc([nH]4)c(-c4cc[n+](C)cc4)c4nc(c(-c5cc[n+](C)cc5)c5ccc2[nH]5)C=C4)C=C3)cc1`: the KD (up to 6.25 μM) was determined as 0.63 ± 0.08 µM. In other words, the sub-micromolar range.
Where the note is “up to 25 μM”, `C[n+]1ccc(-c2c3nc(c(-c4cc[n+](C)cc4)c4ccc([nH]4)c(-c4cc[n+](C)cc4)c4nc(cc5ccc2[nH]5)C=C4)C=C3)cc1` returned a dissociation constant (KD) of 5.88 ± 0.90 µM. That is a single-digit micromolar value.
The same measure, in the same setting: the value for `C[n+]1ccc(-c2c3nc(c(-c4cc[n+](C)cc4)c4ccc(cc5nc(cc6ccc2[nH]6)C=C5)[nH]4)C=C3)cc1` was 18.90 ± 2.80 µM.
Under “up to 6.25 μM”, `C[n+]1ccc(-c2c3nc(cc4ccc([nH]4)c(-c4cc[n+](C)cc4)c4nc(cc5ccc2[nH]5)C=C4)C=C3)cc1` displayed a KD of 0.83 ± 0.10 µM.
